The values that follow come from PubChem BioAssay (NCI).

Each structure is given as a SMILES string.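 Compound exposure: 48 hours, 5 concentrations, 96-well plates. The concentration for 50% growth inhibition is given as GI50. Definition used: TGI = concentration required for complete inhibition of growth.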

The test system of one test is NCI-H522 lung. Nature of the test: DTP human tumour cell line panel, 48 h.
By GI50 is commonly meant the concentration at which growth is held to half of that of the control. For orientation: TGI means the concentration giving total growth inhibition. Read a high TGI as lower sensitivity of the cells. `CN[C@@H](C)C(=O)N[C@H](C(=O)N1CCC[C@H]1C(=O)Nc1sc(-c2ncco2)nc1-c1ccccc1)C1CCCCC1`: the GI50 is 10200 nM and the TGI came out at 28.1 µM.

In the case of `CC1=C2[C@@H](CC1)[C@]1(C)O[C@@](c3ccccc3)(C[C@H]1OC(=O)CO)[C@H]2OC(=O)/C=C/c1ccccc1`, the GI50 is 16800 nM and the TGI worked out at 45.4 µM.

For the compound `NC(=O)c1csc(C2OC(CO)C(O)C2O)n1` (stereo unspecified), the GI50 is 42700 nM and the TGI stood at 678 µM.

Take `CCCN(CCS(C)(=O)=O)Cc1ccc(-c2ccc3ncnc(Nc4ccc(OCc5cccc(F)c5)c(Cl)c4)c3c2)o1`: the GI50 was 525 nM and the TGI was greater than 25 µM.

As to `CC(C)C[C@H](NC(=O)CNC(=O)c1cc(Cl)ccc1Cl)B1OC(=O)CC(CC(=O)O)(C(=O)O)O1` (stereo partly specified), the GI50 is 21.7 nM and the TGI turned out to be 0.056 µM.

With `CCc1ccc2c(c1)N(CCO)C1=C(C(=O)OC1)C2c1cccc(Br)c1` (stereo unspecified), the GI50 was 173 nM and the TGI was determined as 2.06 µM.

As to `CO/N=C(\COc1ccc2c(c1)[nH]c1ccccc12)c1ccc(F)cc1`, the GI50 is greater than 100000 nM and the TGI is greater than 100 µM.

As for `COc1ccc(-c2nc(Nc3cc(C)[nH]n3)c3ccccc3n2)cc1`, the GI50 is 1670 nM and the TGI stood at 19.8 µM.

Take `CN(C)CCCn1c(=O)c2ccccc2c2ccccc21`: the GI50 was 12500 nM and the TGI amounted to 30.6 µM.

Take `O=c1[nH]c(=O)n(C2CC(O)C(COP(=O)(OCc3ccc([N+](=O)[O-])o3)N(CCCCCl)CC(O)CO)O2)cc1F` (stereo unspecified): the GI50 is 985 nM and the TGI amounted to 77.4 µM.

On to `O=C1OC(=O)C(=C\c2ccc3c(c2)OCO3)/C1=C/c1ccc2c(c1)OCO2`, for which the TGI is greater than 100 µM.

Turning to `CC(C)NCCCn1c(Sc2cc3c(cc2I)OCO3)nc2c(N)ncnc21`, the GI50 is 58.8 nM and the TGI is greater than 100 µM.

As for `O=C(/C=C\c1cccc([N+](=O)[O-])c1)/C=C/c1cccc([N+](=O)[O-])c1`, the GI50 is 2790 nM and the TGI was found to be 10.9 µM.

Turning to `CN1C(=O)N(C)C2C1NN=c1s/c(=C\c3ccc(C(F)(F)F)cc3)c(=O)n12` (stereo unspecified), the GI50 was 355 nM and the TGI turned out to be 2.25 µM.

As for `N#Cc1c(N2CCOCC2)nc(=S)[nH]c1-c1ccco1`, the GI50 was 3950 nM and the TGI is greater than 100 µM.

A further test deals with NCI/ADR-RES ovarian. The test is described as follows: DTP human tumour cell line panel, 48 h.
Consider `CN[C@@H](C)C(=O)N[C@H](C(=O)N1CCC[C@H]1C(=O)Nc1sc(-c2ncco2)nc1-c1ccccc1)C1CCCCC1`, for which the GI50 was 27.4 µM and the TGI was greater than 83.2 µM.

Consider `CC1=C2[C@@H](CC1)[C@]1(C)O[C@@](c3ccccc3)(C[C@H]1OC(=O)CO)[C@H]2OC(=O)/C=C/c1ccccc1`, for which the GI50 was 0.348 µM and the TGI came to 16 µM.

In the case of `NC(=O)c1csc(C2OC(CO)C(O)C2O)n1` (stereo unspecified), the GI50 was 47.4 µM and the TGI was 3010 µM.

As to `CCCN(CCS(C)(=O)=O)Cc1ccc(-c2ccc3ncnc(Nc4ccc(OCc5cccc(F)c5)c(Cl)c4)c3c2)o1`, the GI50 was 12 µM and the TGI is greater than 25 µM.

In the case of `CC(C)C[C@H](NC(=O)CNC(=O)c1cc(Cl)ccc1Cl)B1OC(=O)CC(CC(=O)O)(C(=O)O)O1` (stereo partly specified), the concentration for 50% growth inhibition (GI50) was 0.368 µM and the TGI was greater than 100 µM.

Turning to `CCc1ccc2c(c1)N(CCO)C1=C(C(=O)OC1)C2c1cccc(Br)c1` (stereo unspecified), the GI50 is 0.278 µM and the TGI worked out at 2.21 µM.

For `CO/N=C(\COc1ccc2c(c1)[nH]c1ccccc12)c1ccc(F)cc1`, the GI50 is 51.8 µM and the TGI was greater than 100 µM.

For the compound `COc1ccc(-c2nc(Nc3cc(C)[nH]n3)c3ccccc3n2)cc1`, the GI50 was 3.25 µM and the TGI is greater than 58.1 µM.

Take `CN(C)CCCn1c(=O)c2ccccc2c2ccccc21`: the GI50 is 10.9 µM and the TGI was greater than 100 µM.

On to `O=c1[nH]c(=O)n(C2CC(O)C(COP(=O)(OCc3ccc([N+](=O)[O-])o3)N(CCCCCl)CC(O)CO)O2)cc1F` (stereo unspecified), for which the GI50 is 0.781 µM and the TGI was greater than 100 µM.

As to `O=C1OC(=O)C(=C\c2ccc3c(c2)OCO3)/C1=C/c1ccc2c(c1)OCO2`, the TGI was greater than 100 µM.

On to `CC(C)NCCCn1c(Sc2cc3c(cc2I)OCO3)nc2c(N)ncnc21`, for which the GI50 is 3.66 µM and the total growth inhibition concentration (TGI) is greater than 100 µM.

`O=C(/C=C\c1cccc([N+](=O)[O-])c1)/C=C/c1cccc([N+](=O)[O-])c1`: the GI50 is 20.2 µM and the TGI is greater than 100 µM.

On to `CN1C(=O)N(C)C2C1NN=c1s/c(=C\c3ccc(C(F)(F)F)cc3)c(=O)n12` (stereo unspecified), for which the GI50 is 0.696 µM and the TGI was determined as 37.3 µM.

Take `N#Cc1c(N2CCOCC2)nc(=S)[nH]c1-c1ccco1`: the GI50 is 15.6 µM and the TGI was greater than 100 µM.

For another test, the system named is 786-0 renal. Nature of the test: DTP human tumour cell line panel, 48 h.
As to `CN[C@@H](C)C(=O)N[C@H](C(=O)N1CCC[C@H]1C(=O)Nc1sc(-c2ncco2)nc1-c1ccccc1)C1CCCCC1`, the GI50 is 28.2 µM and the TGI was greater than 67.2 µM.

For `CC1=C2[C@@H](CC1)[C@]1(C)O[C@@](c3ccccc3)(C[C@H]1OC(=O)CO)[C@H]2OC(=O)/C=C/c1ccccc1`, the GI50 was 5.23 µM and the TGI worked out at 25.6 µM.

With `NC(=O)c1csc(C2OC(CO)C(O)C2O)n1` (stereo unspecified), the GI50 was 15.5 µM and the TGI worked out at 3460 µM.

For `CCCN(CCS(C)(=O)=O)Cc1ccc(-c2ccc3ncnc(Nc4ccc(OCc5cccc(F)c5)c(Cl)c4)c3c2)o1`, the GI50 was greater than 25 µM and the TGI was greater than 25 µM.

With `CC(C)C[C@H](NC(=O)CNC(=O)c1cc(Cl)ccc1Cl)B1OC(=O)CC(CC(=O)O)(C(=O)O)O1` (stereo partly specified), the GI50 is 0.0655 µM.

In the case of `CCc1ccc2c(c1)N(CCO)C1=C(C(=O)OC1)C2c1cccc(Br)c1` (stereo unspecified), the GI50 is 0.617 µM and the concentration for total growth inhibition (TGI) is 14.7 µM.

Consider `CO/N=C(\COc1ccc2c(c1)[nH]c1ccccc12)c1ccc(F)cc1`, for which the GI50 is 16.8 µM and the TGI was greater than 100 µM.
